Test results published in paper PMC7708037, “Targeting OGG1 arrests cancer cell proliferation by inducing replication stress” (Nucleic Acids Research, 2020).
One block for each compound: values may come before it.

Key:
Assay in all cases: Resazurin viability, 5 days
CCRF-CEM = assay type: cell-based, human; conditions: C, T-cell acute lymphoblastic leukemia
Procedure: (§1) Cells were seeded in 96- or 384-well plates and incubated for 3 days for combination experiments or 5 days for single-drug exposure experiments. Resazurin (R7017, SigmaAldrich) was added to a final concentration of 0.01 mg/ml resazurin and fluorescence was measured at ex530/em590 after incubation for 2, 4 or 6 h. Curves were fitted using XLfit software (IDBS) or Prism 8.0 (Graphpad Software), and EC50 values were determined.
(§2) Supplementary Table S1: Effect of OGG1 inhibitors on cancer and non-transformed cell lines.
(§3) Cell lines were incubated with a dilution series of the indicated compounds for 5 days, and viability
(§4) assessed with resazurin. EC50-values were calculated based on the resulting dose -response curves.
(§5) The number of independent experiments is indicated for each value.
(§6) C=cancer;N=non- Disease EC50 n= EC50 n= EC50 n=
(§7) transformed (µM) (µM) (µM)
A3 C T-cell acute lymphoblastic leukemia 10.0 12 7.9 7 9.8 5 […]
CCRF-CEM C T-cell acute lymphoblastic leukemia 13.0 5 10.5 2 7.9 2 […]

A3 = assay type: cell-based, human; conditions: A3, C, T-cell acute lymphoblastic leukemia
Procedure: as §1, §2, §3, §4, §5, §6, §7

THP1 = assay type: cell-based, human; conditions: THP1, C, Acute monocytic leukemia
Procedure: as §1, §2, §3, §4, §5, §6
(§8) transformed (µM) (µM) (µM) […]
THP1 C Acute monocytic leukemia 17.8 4 19.2 2

MCF7 = assay type: cell-based, human; conditions: MCF7, C, Breast adenocarcinoma
Procedure: as §1, §2, §3, §4, §5, §6

SW1271 = assay type: cell-based, human; conditions: SW1271, C, Small cell lung carcinoma
Procedure: as §1, §2, §3, §4, §5, §6

K562 = assay type: cell-based, human; conditions: K562, C, Chronic myelogenous leukemia
Procedure: as §1, §2, §3, §4, §5, §6

Hec59 = assay type: cell-based, human; conditions: Hec59, C, Endometrioid adenocarcinoma
Procedure: as §1, §2, §3, §4, §5, §6

NB-4 = assay type: cell-based, human; conditions: NB-4, C, Acute promyelocytic leukemia
Procedure: as §1, §2, §3, §4, §5, §6, §8

Hec59+Chr2 = assay type: cell-based, human; conditions: Hec59+Chr2, C, Endometrioid adenocarcinoma with WT Chr2
Procedure: as §1, §2, §3, §4, §5, §6, §8

Reh = assay type: cell-based, human; conditions: C, Acute lymphocytic leukemia (non-T, non-B)
Procedure: as §1, §2, §3, §4, §5, §6, §8

ACHN = assay type: cell-based, human; conditions: C, Kidney adenocarcinoma
Procedure: as §1, §2, §3, §4, §5, §6, §8

Jurkat = assay type: cell-based, human; conditions: C, T-cell acute lymphoblastic leukemia
Procedure: as §1, §2, §3, §4, §5, §6, §8

LCL#2 = assay type: cell-based, human; conditions: LCL#2, N, Non-transformed lymphoblastoid cell line
Procedure: as §1, §2, §3, §4, §5, §6, §8

BJ-Ras = assay type: cell-based, human; conditions: C, RAS-transformed fibroblast
Procedure: as §1, §2, §3, §4, §5, §6, §8

RFX393 = assay type: cell-based, human; conditions: RFX393, C, Kidney carcinoma
Procedure: as §1, §2, §3, §4, §5, §6, §8

LCL#1 = assay type: cell-based, human; conditions: LCL#1, N, Non-transformed lymphoblastoid cell line
Procedure: as §1, §2, §3, §4, §5, §6, §8

MEF Ogg1(-/-) = assay type: cell-based; conditions: N, Non-transformed mouse embryonic fibroblast
Procedure: as §1, §2, §3, §4, §5, §6, §8

SMILES: O=C(Nc1ccc(I)cc1)N1CCC(n2c(=O)[nH]c3c(Br)cccc32)CC1 [TH5487]
EC50 (CCRF-CEM): 13 µM
EC50 (A3): 10 µM
EC50 (THP1): 17.8 µM
EC50 (MCF7): 23.3 µM
EC50 (SW1271): 22 µM
EC50 (K562): 16.7 µM
EC50 (Hec59): 17 µM
EC50 (NB-4): 4.8 µM
EC50 (Hec59+Chr2): 15.7 µM
EC50 (Reh): 18.3 µM
EC50 (ACHN): 2.3 µM
EC50 (Jurkat): 10.5 µM
EC50 (LCL#2): 27.7 µM
EC50 (BJ-Ras): 4.8 µM
EC50 (RFX393): 19.6 µM
EC50 (LCL#1): 31.1 µM
EC50 (MEF Ogg1(-/-)): 47.7 µM

EC50 (CCRF-CEM; Homo sapiens, 120 h): 10.5 µM
EC50 (THP1; Homo sapiens, THP-1, 120 h): 19.2 µM
EC50 (MCF7; Homo sapiens, 120 h): 26.5 µM
EC50 (SW1271; Homo sapiens, 120 h): 24.6 µM
EC50 (K562; Homo sapiens, 120 h): 21 µM
EC50 (ACHN; Homo sapiens, 120 h): 8.5 µM
EC50 (Jurkat; Homo sapiens, 120 h): 13.8 µM
SMILES: O=C(Nc1ccc(Cl)c(Cl)c1)N1CCC(n2c(=O)[nH]c3c(-c4ccc(CO)nc4)cccc32)CC1 [TH5796, N-(3,4-Dichlorophenyl)-4-[4-[6-(hydroxymethyl)-3-pyridyl]-2-oxo-3H-benzimidazol-1-yl]piperidine-1-carbox amide]
EC50 (A3; Homo sapiens, 120 h): 7.9 µM
EC50 (Hec59; Homo sapiens, 120 h): 11.5 µM
EC50 (NB-4; Homo sapiens, 120 h): 11.5 µM
EC50 (Hec59+Chr2; Homo sapiens, 120 h): 17.3 µM
EC50 (Reh; Homo sapiens, 120 h): 14.7 µM
EC50 (LCL#2; Homo sapiens, 120 h): 40.7 µM
EC50 (BJ-Ras; Homo sapiens, 120 h): 15.1 µM
EC50 (RFX393; Homo sapiens, 120 h): 14.2 µM
EC50 (LCL#1; Homo sapiens, 120 h): 33.5 µM
EC50 (MEF Ogg1(-/-); 120 h): 45.8 µM

EC50 (CCRF-CEM; Homo sapiens, 120 h): 7.9 µM
EC50 (ACHN; Homo sapiens, 120 h): 2.8 µM
EC50 (Jurkat; Homo sapiens, 120 h): 15.2 µM
SMILES: Cc1cc(NC(=O)N2CCC(n3c(=O)[nH]c4c(Br)cccc43)CC2)ccc1I [TH6943, 4-(4-Bromo-2-oxo-3H-benzimidazol-1-yl)-N-(4-iodo-3-methyl-phenyl)piperidine-1-carboxamide]
EC50 (A3; Homo sapiens, 120 h): 9.8 µM
EC50 (Reh; Homo sapiens, 120 h): 17.3 µM
EC50 (LCL#2; Homo sapiens, 120 h): 32.3 µM
EC50 (BJ-Ras; Homo sapiens, 120 h): 14.1 µM
EC50 (RFX393; Homo sapiens, 120 h): 11.7 µM
EC50 (LCL#1; Homo sapiens, 120 h): 40 µM
EC50 (MEF Ogg1(-/-); 120 h): 34.3 µM
